In patent publication US5300512A, “Benzimidazole compounds” (G. D. Searle & Co., priority 1992, dated 1994):

Tests used:
5-HT3 = assay: Bezold-Jarisch reflex: reduction of 5-HT-induced bradycardia in anesthetized mice; assay type: in vivo; conditions: i.p., 30 min before 5-HT 0.25 mg/kg i.v.; >50% reduction of bradycardia considered significant
Procedure: (§1) 5-HT4 agonist activity was determined in the in vitro rat tunica muscularis mucosae (TMM) assay. (Baxter et al., Naunyn Schmied Arch. Pharmacol, 1991, 343, 439). The 5-HT4 agonist or antagonist and/or 5-HT3 antagonist activity of the compounds of the invention can be determined by these assays described herein, without undue experimentation.
The compound to be evaluated was administered i.p. (mg/kg) to a group of 3 mice. […] This method has been described by Saxena, P. R. and Lawang, A., Arch. Int. Pharmacodyn., 277: 235-252, 1985.

5-HT3 receptor = target: T1, 5-HT3 receptor (Rattus norvegicus, UniProt P35563); assay: [3H]-GR65630 radioligand binding to 5-HT3 receptor, rat brain cortex membranes
T1 construct: Brain cortices were obtained from male rats and a membrane fraction prepared by standard techniques; from tissue; host or cells: rat brain cortex, membrane fraction
T1 sequence (P35563 24-483): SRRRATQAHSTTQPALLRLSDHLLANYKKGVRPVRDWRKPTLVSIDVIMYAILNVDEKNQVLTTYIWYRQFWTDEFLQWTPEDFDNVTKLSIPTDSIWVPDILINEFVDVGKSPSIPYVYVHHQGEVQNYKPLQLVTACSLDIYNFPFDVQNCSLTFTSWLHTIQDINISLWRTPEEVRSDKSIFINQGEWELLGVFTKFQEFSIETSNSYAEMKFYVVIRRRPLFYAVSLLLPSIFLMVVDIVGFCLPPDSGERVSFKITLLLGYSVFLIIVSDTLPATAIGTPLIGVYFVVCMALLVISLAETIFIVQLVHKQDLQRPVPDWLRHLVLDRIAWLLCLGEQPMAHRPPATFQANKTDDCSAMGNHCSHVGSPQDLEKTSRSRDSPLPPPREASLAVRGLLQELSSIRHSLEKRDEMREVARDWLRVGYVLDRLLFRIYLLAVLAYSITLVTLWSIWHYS
Procedure: as §1
GR65630 binds to the 5-HT3 receptor. Brain cortices were obtained from male rats and a membrane fraction prepared by standard techniques. 0.04 mg of membrane prep was incubated with 0.2 nM […] for 60 minutes at 22° C. […] Membranes were filtered and washed 3 times and the filters were counted to determine [3H]-GR65630 specifically bound. (Kilpatrick G. J., Jones B. J. and Tyers M. B. Identification and distribution of 5-HT3 receptors in rat brain using radioligand binding. Nature, 330: 746-748, 1987).

5-HT4 receptor = target: T2, 5-HT4 receptor (Rattus norvegicus, UniProt Q62758); assay: In vitro functional assay for serotonin 5-HT4 agonism: rat TMM (relaxation of carbachol-contracted tunica muscularis mucosae); assay type: biochemical; conditions: rat esophagus, carbachol (3 μM) contracted, 37° C, tissues from 5 rats
T2 construct: The inner tunica muscularis mucosa was mounted under 0.2-0.3 g of tension in a tissue bath; from tissue; host or cells: rat intrathoracic esophagus, tunica muscularis mucosae
Procedure: as §1
Agonist activity was determined utilizing relaxation of carbachol-contracted rat tunica muscularis mucosae. One 2 cm segment of intrathoracic esophagus proximal to the diaphragm was removed from male rats, weighing approximately 300 gm, and the outer muscle layers removed. The inner tunica muscularis mucosa was mounted under 0.2-0.3 g of tension in a tissue bath containing oxygenated Tyrode's solution at 37° C. […] Following a 30 min equilibrium period, tissues were isometrically contracted with carbachol (3 μM) to obtain a tonic contraction. A stable plateau was obtained within 20 min when test compound was added cumulatively to relax the muscle strip. EC50 values were obtained for each agonist in tissues from 5 rats.

T2 sequence (Q62758 whole entry): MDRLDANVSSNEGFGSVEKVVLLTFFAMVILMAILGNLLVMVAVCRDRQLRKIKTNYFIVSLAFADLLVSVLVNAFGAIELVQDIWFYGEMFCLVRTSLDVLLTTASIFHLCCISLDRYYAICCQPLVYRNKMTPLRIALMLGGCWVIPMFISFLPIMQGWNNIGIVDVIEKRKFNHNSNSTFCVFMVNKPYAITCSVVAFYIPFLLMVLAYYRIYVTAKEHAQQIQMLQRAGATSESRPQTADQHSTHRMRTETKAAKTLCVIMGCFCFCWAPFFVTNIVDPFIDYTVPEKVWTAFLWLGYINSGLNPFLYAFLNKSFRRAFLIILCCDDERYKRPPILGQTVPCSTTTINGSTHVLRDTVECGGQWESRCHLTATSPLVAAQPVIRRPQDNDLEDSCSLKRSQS

SMILES | Minimum Effective Dose (MED) (5-HT3) | Hill Coefficient (5-HT3 receptor; [3H]-GR65630 bound (0.2 nM)) | further results
CN1[C@@H]2C[C@@H](OC(=O)[C@H](CO)c3ccccc3)C[C@H]1[C@@H]1O[C@@H]12 [scopolamine] | 2.5 mg/kg | – | –
c1ccc2nc(N3CCNCC3)ccc2c1 [Quipazine] | – | 0.86 | –
CN1C2CCC1CC(OC(=O)c1c[nH]c3ccccc13)C2 (stereo not shown) [ICS 205-930] | – | 1.0 | –
CCN(CC)CCNC(=O)c1cc(Cl)c(N)cc1OC [metoclopramide] | 5 mg/kg | – | –
COc1cc(N)c(Cl)cc1C(=O)NC1CN2CCC1CC2 (stereo not shown) [Zacopride] | – | 0.86 | –
O=c1[nH]c2ccccc2n1CCCN1CCC(n2c(=O)[nH]c3cc(Cl)ccc32)CC1 [domperidone] | > 10 mg/kg | – | –
COc1ccc2[nH]cc(C3=CCNCC3)c2c1 [RU24969] | – | 1.0 | –
CC(C)n1c(=O)n(C(=O)NCC23CCN(CC2)CC3)c2ccccc21 [Example 10, N-(1-azabicyclo[2.2.2]octan-4-ylmethyl)-2,3-dihydro-3-(1-methylethyl)-2-oxo-1H-benzimidazole-1-carboxamide] | 0.03 mg/kg | – | IC50 (5-HT3 receptor; [3H]-GR65630 bound (0.2 nM)): 8.6 nM; Ki (5-HT3 receptor; [3H]-GR65630 bound (0.2 nM)): 4.3 nM; EC50 (5-HT4 receptor): 125 nM
CN1C2CCCC1CC(NC(=O)c1nn(C)c3ccccc13)C2 (stereo not shown) [BRL-43694] | 0.05 mg/kg | – | –
Cc1[nH]cnc1CCC(=O)c1cn(C)c2ccccc12 [GR65630] | – | – | % Specific Binding (5-HT3 receptor; [3H]-GR65630, non-specific binding with 1 uM ICS 205-930): 70%
